Reference: the NIST ThermoML archive (doi:10.1016/j.jct.2013.09.024)

Assay: xn = mol fraction of the nth substance listed
Details: 298.15 K, Liquid, Vibrating tube method

CC1(C)C(=O)[C@]2(C)CC[C@H]1C2 [(-)-fenchone] + CCO
mass density [kg/m3]
Details | 101 kPa | 20000 kPa | 25000 kPa | 30000 kPa | 35000 kPa | 40000 kPa
x1 = 0.0481 | 804.6 | – | – | – | – | –
x1 = 0.051 | – | 822 | 825.6 | 829.1 | 832.5 | 835.7
x1 = 0.0985 | 822.02 | – | – | – | – | –
x1 = 0.0992 | – | 838 | 841.6 | 845 | 848.3 | 851.5
x1 = 0.199 | – | 864.9 | 868.3 | 871.7 | 874.8 | 877.9
x1 = 0.2002 | 849.9 | – | – | – | – | –
x1 = 0.3002 | 870.72 | – | – | – | – | –
x1 = 0.301 | – | 885.7 | 889.1 | 892.3 | 895.4 | 898.4
x1 = 0.3968 | – | 901.1 | 904.4 | 907.6 | 910.6 | 913.6
x1 = 0.4031 | 887.59 | – | – | – | – | –
x1 = 0.4976 | – | 914.3 | 917.6 | 920.7 | 923.7 | 926.7
x1 = 0.5012 | 900.59 | – | – | – | – | –
x1 = 0.5924 | – | 924.6 | 927.8 | 930.9 | 933.9 | 936.7
x1 = 0.5976 | 911.15 | – | – | – | – | –
x1 = 0.6956 | – | 934 | 937.1 | 940.2 | 943.2 | 946
x1 = 0.697 | 920.28 | – | – | – | – | –
x1 = 0.7897 | 927.48 | – | – | – | – | –
x1 = 0.7942 | – | 941.6 | 944.7 | 947.7 | 950.6 | 953.5
x1 = 0.8929 | – | 948.1 | 951.1 | 954.1 | 957 | 959.8
x1 = 0.899 | 934.83 | – | – | – | – | –
x1 = 0.9454 | – | 951.2 | 954.2 | 957.2 | 960.1 | 962.9
x1 = 0.9486 | 937.77 | – | – | – | – | –
x1 = 1 | 940.67 | 954 | 957.1 | 960 | 962.9 | 965.7
